Reference: patent US5691338A, “1,2-dithiole-3 thiones for the treatment of reverse transcriptase-dependent viral infections” (priority 1995, dated 1997)

Columns and labels:
HIV-1 [1] = settings: cited from earlier work
HIV-1 [2] = settings: HIV-1 infected patients, pharmacokinetics study; cited from earlier work
HIV-1 (HTLVIIIB) = assay: microbe, parasite or virus in culture; settings: Human immunodeficiency virus 1, H9, read-out: median dose (p24 release)
Protocol: The effects for test compounds were assessed by means of both IFA and p24 release. In general, the following protocol was followed: H9 cells were infected with HIV-1 at 1000 50% infective doses of viruses/10^6 cells. Virus was allowed to adsorb for 1 h, after which unadsorbed virus was removed by centrifugation. The cells were resuspended and washed twice with PBS (without Ca^+2 or Mg^+2 salts) and centrifuged to collect the cell pellet (150×g×10 min). Cells were suspended in fresh medium and added at a final cell density of 500,000 cells/ml in a 96-well plate with media containing 0.1% DMSO and various concentrations of test compounds. The cells were re-fed freshly prepared media containing 0.1% DMSO±test compounds on day four (for preinduction experiments, cells were exposed to inducers on days -2, 0, and +4 days relative to infection). After seven days, cells were examined for cytoxicity by trypan blue exclusion, the degree of infection with HIV-1 by IFA, and the supernatants were assayed for p24 levels according to the manufacturer's directions. The IFA procedure can be summarized as follows: The cells were washed twice in PBS and were placed in 5 mm 12-well slides. After allowing the slides to dry and fixing the cells with acetone for 5 min, 10 μl of HIV-1 positive serum in 40 μl PBS was added to each well and allowed to incubate at 37° C. for 30 min. After incubation, the slides were washed twice with PBS and incubated at 37° C. for 30 min with 2.5 μl goat anti-human IgG-fluorescein isothiocyanate conjugate in 50 μl PBS containing 0.01% Evans Blue per well. The slides were then washed twice with PBS, dried, and mounted with 50% glycerol in PBS, and scored for the percentage of fluorescent cells by fluorescent microscopy.
Statistical significance for GSH and QR levels were established by the unpaired t test using the INSTAT statistics program (Graphpad, San Diego, Calif.). The Ki of oltipraz was determined by performing Segal transformations (26) of Dixon plots. […] Calculations were performed on spreadsheets using Lotus 1-2-3 software (Cambridge, Mass.).

Row | SMILES | inhibition of HIV-1 replication (HIV-1 [1]; cultured cells) | effect on surrogate markers for HIV-1 (HIV-1 [2]) | IC50 (HIV-1 (HTLVIIIB)) | synergy with anti-HIV-1 drugs (HIV-1 [1]; in vitro, Kong et al.)
1 | CC(=O)N[C@@H](CS)C(=O)O [N-acetylcysteine] | effectively inhibit the replication of HIV-1 | did not alter surrogate markers for HIV-1 | – | –
2 | Cc1cn([C@H]2C[C@H](N=[N+]=[N-])[C@@H](CO)O2)c(=O)[nH]c1=O [AZT, 3'-azido-3'-deoxythymidine] | – | – | 45 nM | synergistic with anti-HIV-1 drugs such as phosphonoformate
